Reference: PubChem BioAssay (NCI)
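Five concentrations, 48 hours, 96-well plates. GI50 = concentration required for 50% inhibition of growth. TGI denotes the concentration required for complete inhibition of growth.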

Tests used:
Assay in all cases: growth of human tumour cells (NCI), 48 h
MALME-3M melanoma = test system: MALME-3M melanoma
CAKI-1 renal = test system: CAKI-1 renal
LOX IMVI melanoma = test system: LOX IMVI melanoma
RXF 393 renal = test system: RXF 393 renal
MDA-MB-231 breast = test system: MDA-MB-231 breast
KM12 colon = test system: KM12 colon
SF-539 CNS = test system: SF-539 CNS
ACHN renal = test system: ACHN renal
UO-31 renal = test system: UO-31 renal
SF-295 CNS = test system: SF-295 CNS
EKVX NSCLC = test system: EKVX NSCLC
K-562 leukemia = test system: K-562 leukemia
HS 578T breast = test system: HS 578T breast
U251 CNS = test system: U251 CNS
OVCAR-5 ovarian = test system: OVCAR-5 ovarian
RPMI-8226 leukemia = test system: RPMI-8226 leukemia
HOP-92 NSCLC = test system: HOP-92 NSCLC
TK-10 renal = test system: TK-10 renal
HCC-2998 colon = test system: HCC-2998 colon
SNB-19 CNS = test system: SNB-19 CNS
SK-MEL-28 melanoma = test system: SK-MEL-28 melanoma
SNB-75 CNS = test system: SNB-75 CNS
NCI-H522 lung = test system: NCI-H522 lung
BT-549 breast = test system: BT-549 breast
T-47D breast = test system: T-47D breast
SK-OV-3 ovarian = test system: SK-OV-3 ovarian
HCT-15 colon = test system: HCT-15 colon
NCI-H460 lung = test system: NCI-H460 lung
OVCAR-4 ovarian = test system: OVCAR-4 ovarian
MCF7 breast = test system: MCF7 breast
SK-MEL-5 melanoma = test system: SK-MEL-5 melanoma
HL-60(TB) leukemia = test system: HL-60(TB) leukemia
MOLT-4 leukemia = test system: MOLT-4 leukemia
SK-MEL-2 melanoma = test system: SK-MEL-2 melanoma
HCT-116 colon = test system: HCT-116 colon
OVCAR-3 ovarian = test system: OVCAR-3 ovarian
SW-620 colon = test system: SW-620 colon
PC-3 prostate = test system: PC-3 prostate
A549 NSCLC = test system: A549 NSCLC
OVCAR-8 ovarian = test system: OVCAR-8 ovarian
NCI-H23 lung = test system: NCI-H23 lung
MDA-MB-435 = test system: MDA-MB-435
COLO 205 colon = test system: COLO 205 colon
UACC-257 melanoma = test system: UACC-257 melanoma
M14 melanoma = test system: M14 melanoma
SF-268 CNS = test system: SF-268 CNS
A498 renal = test system: A498 renal
NCI/ADR-RES ovarian = test system: NCI/ADR-RES ovarian
IGROV1 ovarian = test system: IGROV1 ovarian
DU-145 prostate = test system: DU-145 prostate
MDA-MB-468 breast = test system: MDA-MB-468 breast
HT29 colon = test system: HT29 colon
SN12C renal = test system: SN12C renal
NCI-H226 lung = test system: NCI-H226 lung
CCRF-CEM leukemia = test system: CCRF-CEM leukemia
HOP-62 NSCLC = test system: HOP-62 NSCLC
UACC-62 melanoma = test system: UACC-62 melanoma
786-0 renal = test system: 786-0 renal

Work on `CN(C)c1nc(NCCNS(=O)(=O)c2ccc(C(=O)/C=C/c3ccc(Cl)cc3)cc2)nc(Nc2ccc(F)cc2)n1` yielded a GI50 (MALME-3M melanoma) of 12.8 µM, a TGI (MALME-3M melanoma) of 26.4 µM and a GI50 (CAKI-1 renal) of 4.93 µM. It also gave a TGI (CAKI-1 renal) of 19.5 µM, a GI50 (LOX IMVI melanoma) of 2.74 µM and a TGI (LOX IMVI melanoma) of 9.16 µM. For the same compound, the GI50 (RXF 393 renal) was 3.09 µM, the TGI (RXF 393 renal) was 15.1 µM and the GI50 (MDA-MB-231 breast) was 4.72 µM. It also gave a TGI (MDA-MB-231 breast) of 17.4 µM, a GI50 (KM12 colon) of 2.97 µM and a TGI (KM12 colon) of 9.11 µM. The GI50 (SF-539 CNS) was 10.1 µM, the TGI (SF-539 CNS) was 22 µM and the GI50 (ACHN renal) was 4.2 µM. The TGI (ACHN renal) was 15.3 µM, the GI50 (UO-31 renal) was 4 µM and the TGI (UO-31 renal) was 16.6 µM. For the same compound, the GI50 (SF-295 CNS) was 6.11 µM, the TGI (SF-295 CNS) was 19.8 µM and the GI50 (EKVX NSCLC) was 3.11 µM. For the same compound, the TGI (EKVX NSCLC) was 14.7 µM, the GI50 (K-562 leukemia) was 3.29 µM and the TGI (K-562 leukemia) was > 100 µM. The GI50 (HS 578T breast) was 11.4 µM, the TGI (HS 578T breast) was 58.1 µM and the GI50 (U251 CNS) was 5.25 µM. It also gave a TGI (U251 CNS) of 18.6 µM, a GI50 (OVCAR-5 ovarian) of 10.7 µM and a TGI (OVCAR-5 ovarian) of 22.6 µM. For the same compound, the GI50 (RPMI-8226 leukemia) was 2.47 µM, the TGI (RPMI-8226 leukemia) was 7.11 µM and the GI50 (HOP-92 NSCLC) was 3.83 µM. For the same compound, the TGI (HOP-92 NSCLC) was 14.7 µM, the GI50 (TK-10 renal) was 11.7 µM and the TGI (TK-10 renal) was 30.3 µM. The GI50 (HCC-2998 colon) was 2.48 µM, the TGI (HCC-2998 colon) was 6.9 µM and the GI50 (SNB-19 CNS) was 9.18 µM. The TGI (SNB-19 CNS) was 21.3 µM, the GI50 (SK-MEL-28 melanoma) was 6.77 µM and the TGI (SK-MEL-28 melanoma) was 20.1 µM. It also gave a GI50 (SNB-75 CNS) of 5.6 µM, a TGI (SNB-75 CNS) of 25.7 µM and a GI50 (NCI-H522 lung) of 7.1 µM. It also gave a TGI (NCI-H522 lung) of 22 µM, a GI50 (BT-549 breast) of 11.6 µM and a TGI (BT-549 breast) of 23.9 µM. The GI50 (T-47D breast) was 4.37 µM, the TGI (T-47D breast) was 18 µM and the GI50 (SK-OV-3 ovarian) was 11.5 µM. The TGI (SK-OV-3 ovarian) was 27.7 µM, the GI50 (HCT-15 colon) was 4.62 µM and the TGI (HCT-15 colon) was 16.9 µM. It also gave a GI50 (NCI-H460 lung) of 3.38 µM, a TGI (NCI-H460 lung) of 13.8 µM and a GI50 (OVCAR-4 ovarian) of 5.92 µM. For the same compound, the TGI (OVCAR-4 ovarian) was 22 µM, the GI50 (MCF7 breast) was 2.28 µM and the TGI (MCF7 breast) was 6.33 µM. The GI50 (SK-MEL-5 melanoma) was 5.89 µM, the TGI (SK-MEL-5 melanoma) was 18.8 µM and the GI50 (HL-60(TB) leukemia) was 4.39 µM. The TGI (HL-60(TB) leukemia) was > 100 µM, the GI50 (MOLT-4 leukemia) was 3.07 µM and the TGI (MOLT-4 leukemia) was > 100 µM. It also gave a GI50 (SK-MEL-2 melanoma) of 5.47 µM, a TGI (SK-MEL-2 melanoma) of 19.5 µM and a GI50 (HCT-116 colon) of 1.66 µM. For the same compound, the TGI (HCT-116 colon) was 3.11 µM, the GI50 (OVCAR-3 ovarian) was 3.16 µM and the TGI (OVCAR-3 ovarian) was 11.9 µM. It also gave a GI50 (SW-620 colon) of 2.78 µM, a TGI (SW-620 colon) of 11 µM and a GI50 (PC-3 prostate) of 3.74 µM. For the same compound, the TGI (PC-3 prostate) was 14.1 µM, the GI50 (A549 NSCLC) was 4.52 µM and the TGI (A549 NSCLC) was 17.4 µM. It also gave a GI50 (OVCAR-8 ovarian) of 10.2 µM, a TGI (OVCAR-8 ovarian) of 23.7 µM and a GI50 (NCI-H23 lung) of 10.7 µM. It also gave a TGI (NCI-H23 lung) of 23.4 µM, a GI50 (MDA-MB-435) of 3.8 µM and a TGI (MDA-MB-435) of 14 µM. The GI50 (COLO 205 colon) was 5.96 µM, the TGI (COLO 205 colon) was 18.7 µM and the GI50 (UACC-257 melanoma) was 8.36 µM. The TGI (UACC-257 melanoma) was 21.8 µM, the GI50 (M14 melanoma) was 4.14 µM and the TGI (M14 melanoma) was 15.3 µM. The GI50 (SF-268 CNS) was 6.21 µM, the TGI (SF-268 CNS) was 23.5 µM and the GI50 (A498 renal) was 10.5 µM. The TGI (A498 renal) was 23.1 µM, the GI50 (NCI/ADR-RES ovarian) was 5.49 µM and the TGI (NCI/ADR-RES ovarian) was 18.4 µM. The GI50 (IGROV1 ovarian) was 8.58 µM, the TGI (IGROV1 ovarian) was 21.4 µM and the GI50 (DU-145 prostate) was 9.7 µM. The TGI (DU-145 prostate) was 21.8 µM, the GI50 (MDA-MB-468 breast) was 3.71 µM and the TGI (MDA-MB-468 breast) was 14.8 µM. It also gave a GI50 (HT29 colon) of 2.15 µM, a TGI (HT29 colon) of 5.72 µM and a GI50 (SN12C renal) of 3.79 µM. The TGI (SN12C renal) was 15.9 µM, the GI50 (NCI-H226 lung) was 6.14 µM and the TGI (NCI-H226 lung) was 24.3 µM. For the same compound, the GI50 (CCRF-CEM leukemia) was 3.75 µM, the TGI (CCRF-CEM leukemia) was > 100 µM and the GI50 (HOP-62 NSCLC) was 12.5 µM. It also gave a TGI (HOP-62 NSCLC) of 27.5 µM, a GI50 (UACC-62 melanoma) of 5.41 µM and a TGI (UACC-62 melanoma) of 18.7 µM. The GI50 (786-0 renal) was 7.28 µM and the TGI (786-0 renal) was 20.2 µM.
